This note sets out measurements from EP1205482A2, “Alkyl trimethylsiloxybenzoat compounds and method of preparation” (Clariant Life Science Molecules (Florida) Inc., priority 2000, dated 2002).

This series can be described thus: Hydrolytic stability in aqueous medium. It is filed as physicochemical. The conditions noted are these: 50/50 w/w medium of 1,2-dimethoxyethane (DME) and sterilized water. The procedure: Aqueous solutions of the products from examples 3 and 5 above were prepared as follows. A 0.715% solution of propyl 4-trimethylsiloxybenzoate was prepared in a 50/50 w/w medium of 1,2-dimethoxyethane (DME)and sterilized water. […] Accordingly this DME/water solution (I) will contain 0.500% propyl 4-hydroxybenzoate and 0.180% trimethylsilanol and/or it's condensate hexamethyldisiloxane. In a similar manner a 0.685 % solution of butyl 4-trimethylsiloxybenzoate was prepared in a 50/50 w/w medium of 1,2-dimethoxyethane (DME)and sterilized water. […] Accordingly this DME/water solution (II) will contain 0.500% butyl 4-hydroxybenzoate and 0.170% trimethylsilanol and/or it's condensate hexamethyldisiloxane. The above two aqueous solutions were employed in Zone Inhibition Testing against three bacteria: Pseudomonas aeruginosa, Escherichia coli and Staphylococcus aureus.

Take `CCCOC(=O)c1ccc(O[Si](C)(C)C)cc1` [Example 3, propyl 4-trimethylsiloxybenzoate]: the hydrolytic stability entry was “hydrolytically unstable”. The value for `CCCCOC(=O)c1ccc(O[Si](C)(C)C)cc1` [Example 4, butyl 4-trimethylsiloxybenzoate] was “hydrolytically unstable”.
